Data as given in patent publication EP2545917B1, “NOVEL EP4 AGONIST” (Kaken Pharmaceutical Co., Ltd., priority 2010, dated 2011).

How the values were obtained:
Human IP = target: T1, Human IP (Homo sapiens, UniProt P43119); assay: Receptor affinity, tritium-labeled iloprost binding to membranes of transfected COS-7 cells; conditions: COS-7 cell membranes
T1 construct: expressed in transfected cells; host or cells: COS-7
Method: PG receptor affinity of compound F and compound J of the present invention was evaluated. Compound F used was one synthesized in Example 9, and compound J was prepared by separating and purifying the compound synthesized in Example 14 with a column (the same preparations were used in the following Examples). COS-7 cells were transfected with the genes of mouse EP4, human EP1-4 or human IP to overexpress the receptor and then the cell membranes were collected. As a labeled ligand, tritium-labeled PGE2 was used for EPs; tritium-labeled iloprost, for IP. The dissociation constant Kd value was obtained and inhibition constant Ki value of each test compound was determined in a conventional method. As a reference control, PGE2 was used for EPs; beraprost sodium (BPS), for IP.

[1] = test system: dextran sodium sulfate-induced colitis; assay: Dextran sodium sulfate-induced colitis model in mice (C57BL/6); type: in vivo; conditions: C57BL/6 mice, DSS, oral 0.3 and 1 mg/kg once a day
Method: Female C57BL/6 mice (6 weeks old, Japan SLC) were purchased, acclimated for 1 week and used for the study. Except the normal group, the mice were allowed to freely drink a 3 or 2 w/v% DSS (MP Biochemicals, Lot No. 5653H and 5464H, respectively) solution for 1 week to induce colitis. BPS at a dose of 0.3 mg/kg and compound F at doses of 0.3 and 1 mg/kg were orally administered once a day, daily, from the start day of DSS drinking (day 0) to one day before autopsy (day 9). To the control group was orally administered a solvent (1 vol% ethanol solution) at 10 mL/kg in the same manner. The consistency of the stool was graded from score 0 to 4, with normal (0), partly loose stool (1), loose stool (2) and diarrhea (4). The blood feces was also graded from score 0 to 4, with normal (0), partly blood feces (1), blood feces (2) and blood feces plus proctorrhagia (4). The sum of both grades was defined as the stool score (maximum 8). Furthermore, the length of the large intestine was measured in the same manner as in Example 23. Six to 10 animals were used for each group, and the results are shown in average ± standard deviation.

[2] = test system: dextran sodium sulfate-induced colitis; assay: Prophylactic effect on dextran sodium sulfate-induced colitis model in mice (BALB/c); type: in vivo; conditions: 2.2 w/v% DSS
Method: Female BALB/c mice (6 weeks old, Japan SLC) were purchased, acclimated for 1 week and used for the study. Except the normal group, the mice were allowed to freely drink a dextran sodium sulfate (to be abbreviated as DSS, MP Biochemicals, M.W. 36,000 - 50,000, Lot No. 3439J) solution prepared to 2.2 w/v% for 9 days to induce colitis. Compound F was orally administered at doses of 0.1, 0.3 and 1 mg/kg, once a day, daily, from the start day of DSS drinking (day 0) to one day before autopsy (day 9). To the control group was orally administered a solvent (1 vol% ethanol solution) at 10 mL/kg in the same manner.
Thus, to determine the level of diarrhea, the stool was graded into 6 levels; normal (score 0), spherical stool being not less than 50% (score 1), banana-shaped stool being less than 50% (score 2), banana-shaped stool being not less than 50% (score 3), muddy stool (score 4), watery stool (score […]) (stool consistency score). The fecal occult blood (including proctorrhagia) was graded using fecal occult blood slide 5 Shionogi II (Shionogi & Co., Ltd.) into 6 levels; negative (no change of the slide color from yellow, score 0), weakly positive (slightly blue green, score 1), positive (blue green, score 2), moderately positive (clear blue green, score 3), strongly positive (instantaneous color change to dark blue with color developer, score 4), and proctorrhagia (score 5). The sum of the stool consistency score and occult blood score was defined as the stool score. Eight to 10 animals were used for each group, and the results were expressed as average ± standard deviation. On the day of autopsy, after laparotomy under ether anesthesia and blood collection, the mice were exsanguinated to death. Then the large intestines were dissected from just below the cecum to the anus and the length thereof was measured.

[3] = test system: blood pressure and heart rate; assay: Effect on blood pressure and heart rate in mice; type: in vivo, ICR mice; conditions: intravenous 0.01 mg/5 mL/kg, isoflurane anesthesia
Method: Male ICR mice (5 weeks old, Japan SLC) were purchased, acclimated for 6 days and used for the test. The animals were treated and measured under isoflurane inhalation anesthesia (anesthesia introduced at 2.5%, maintained at 1.8-2.1%), while body temperature was kept at 37°C with a Heat Controller (ATC-402, Unique Medical Co., Ltd.). A catheter for administration of test compounds was inserted into the left femoral vein, and another catheter was inserted into the right femoral artery and connected to a pressure transducer to record each parameter of hemodynamics.
Compound F, the carboxylate form of compound F and BPS were intravenously administered at a dose of 0.01 mg/5 mL/kg, and the effect on the mean blood pressure and heart rate was evaluated with computer software for the analysis of hemodynamics (Fluclet, Dainippon Sumitomo Pharma Co., Ltd.). To the control group was intravenously administered a solvent (1.2% ethanol solution) at 5 mL/kg in the same manner. The results are expressed as a ratio of change in each parameter before and after the drug administration. Three to 6 animals were used for each group, and the results were expressed as average ± standard deviation.

T1 sequence (P43119 whole entry): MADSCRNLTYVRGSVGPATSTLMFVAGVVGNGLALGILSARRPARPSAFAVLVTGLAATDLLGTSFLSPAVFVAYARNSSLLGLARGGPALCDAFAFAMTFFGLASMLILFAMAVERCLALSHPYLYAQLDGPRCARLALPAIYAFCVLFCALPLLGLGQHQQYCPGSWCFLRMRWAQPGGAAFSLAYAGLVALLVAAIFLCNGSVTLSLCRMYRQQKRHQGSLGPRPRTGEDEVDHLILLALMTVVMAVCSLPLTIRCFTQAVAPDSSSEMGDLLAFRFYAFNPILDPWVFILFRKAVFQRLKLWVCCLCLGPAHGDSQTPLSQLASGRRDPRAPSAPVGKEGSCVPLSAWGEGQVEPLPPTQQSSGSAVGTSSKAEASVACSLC

Ki (Human IP): 670 nM
SMILES: Cc1cccc([C@@H](C)[C@H](O)/C=C/[C@@H]2[C@@H]3[C@H](C[C@H]2O)O/C(=C\CCCc2nnn[nH]2)C3(F)F)c1 [Compound F, 4-[(Z)-(1S,5R,6R,7R)-6-[(1E,3R,4R)-3-hydroxy-4-(m-tolyl)-1-pentenyl]-7-hydroxy-2-oxa-4,4-difluoro-bicyclo[3.3.0]octan-3-ylidene]-1-(tetrazol-5-yl)butane]
effect on the onset of colitis (stool score, colon shortening) [1]: superior prophylactic effect on the onset of colitis
suppression of the increase in the stool score ([2]; oral 0.1 mg/kg once a day): suppressive tendency
suppression of the increase in the stool score ([2]; oral 0.3 mg/kg once a day): significant
suppression of the increase in the stool score ([2]; oral 1 mg/kg once a day): significant
effect on shortening of the large intestine ([2]; oral 0.1, 0.3 and 1 mg/kg once a day): dose-dependent suppressive effect on shortening of the large intestine
effect on heart rate [3]: little effect on the heart rate
maximum decrease ratio of mean blood pressure [3]: 16.2%
